# From patent US10124064B2, “Antimicrobial compositions of aminoglycosidic antibiotics and zinc ion chelators specifically formulated for enhanced inhibition of bacterial colonization and antibacterial efficacy” (University of Cincinnati, priority 2013, dated 2018)
# Test system: S. aureus ATCC 6538
# Test: Porcine deep partial-thickness wound model inoculated with S. aureus; planktonic (flush) and biofilm (scrub) bacterial counts on day 2
# Format: in vivo, Staphylococcus aureus
# Description: Summarily, forty-four deep, partial-thickness wounds were created on the paravertebral area on two pigs. Four wounds each were randomly assigned to eleven treatment groups and inoculated with S. aureus ATCC 6538. Wounds were treated with approximately 200 mg of each treatment. On day 2, wounds were assessed using a flush and scrub technique to recover planktonic and biofilm-associated bacterial count, respectively.
# Swine (2 animals) were used as the experimental animal due to the morphological, physiological, and biochemical similarities between swine skin and human skin.
# • 44 deep partial thickness wounds measuring 10 mm×7 mm×0.5 mm were made in the peravertebral and thoracic areas of each animal • 4 wounds were randomly assigned to each of the 11 treatment groups Inoculation: • 25 μl of inoculum of 10^6 CFU/ml were inoculated into each wound and scrubbed lightly using a sterile Teflon spatula. Experimental Design: Pig 1: Treatment Groups
# • Within 20 minutes of inoculation each wound was treated with the appropriate treatment. Each wound was treated with ≅200 mg of the appropriate treatment (days 0 and 1). • All wounds were covered with polyurethane film dressings Wound Recovery: • A sterile surgical steel cylinder (22 mm inside diameter) was placed over the wound area and 1 ml of all-purpose neutralizer solution was pipetted inside. • The site was gently flushed by pipetting in and out three times to remove the loosely attached bacteria (a), this aliquot represents the planktonic bacteria. • The same wound was then encircled using another sterile cylinder and 1 ml of all-purpose neutralizer solution was again pipetted into the cylinder and this time scrubbed with a sterile Teflon spatula for 30 seconds to remove the firmly attached bacteria (b), this aliquot was aspirated and represents biofilm bacteria.
# [1] = swine wounds, 30000 μM (=15 mg/ml) DTPA used alone, topical, day 2
Substance,reduction of S. aureus counts compared to the untreated group (30000 μM DTPA alone),bacterial counts (planktonic and biofilm) versus untreated control wounds (all concentrations of DTPA alone (30 to 30000 μM)),biofilm count [1],planktonic bacterial count [1],reduction in wound bioburden versus DTPA alone (0.1% Gentamicin positive control compared with all DTPA concentrations alone)
diethylenetriamine pentaacetic acid [DTPA],99.96%,reduced bacterial counts,6.09±012 Log CFU/ml,5.19±0.29 Log CFU/ml,
"gentamicin [Gentamicin 0.1%, reference compound]",,,,,substantially more reduction in wound bioburden than any of the DTPA concentrations alone
